In patent US11465989B2, “Guanidine compounds and use thereof” (IMMUNOMET THERAPEUTICS INC., priority 2014, dated 2022):
Where a name gives a salt, the structure may show the parent alone.

Tests used:
[1] = tested on: SK-MEL-239 tumor cells; assay: In vivo xenograft model using SK-MEL-239 cell; design: species or system mice
Method: The compounds of the present invention were evaluated in vivo using xenograft human cancer model in mice. The compounds of invention were administrated orally or interperitoneal injection. Tumor cell lines were cultured in vitro as monolayer culture. Using female BALB/c nude mice with immune system compromised, each mouse was inoculated subcutaneously at the right flank with tumor cells for tumor development. The treatment was started when the tumor size reaches approximately 100 mm^3
The SK-MEL-239 tumor cell line was maintained in vitro as monolayer in RPMII 640 medium supplemented with 10% heat inactivated fetal bovine serum, 100 U/ml penicillin and 100 μg/ml streptomycin, and L-glutamine (2 mM) at 37° C. in an atmosphere of 5% CO2 in air. The tumor cells were routinely subcultured twice weekly with 0.5% trypsin-EDTA treatment. The cells growing in an exponential growth phase were harvested and counted for tumor cell inoculation.
Female BALB/c nude mice aged 6-8 weeks and weighing approximately 18-22 g were purchased from Vital River. Each mouse was inoculated subcutaneously at the right flank with SK-MEL-239 tumor cells (1×10^7) in 0.1 ml of PBS for tumor development. The treatment was started, when the tumor size reaches approximately 100 mm^3. 100 mg/kg of Phenformin and 15 mg/kg of Vemurafenib were administered via oral gavage twice daily and 100 mg/kg HLPOI (HL176001001) was administered once daily for 21 days. Tumor volumes were measured twice a week in two dimensions using a caliper, and the volume was expressed in mm^3 using the formula: V=0.5×a×b^2, where a and b were the long and short diameters of the tumor, respectively. The T/C value (in percentage) was an indication of antitumor effect. T and C were the mean volumes of the treated and control groups, respectively.

[2] = tested on: A549 cells; assay: In vitro combination study with Dasatinib on A549 cell; assay type: cell-based; settings: in combination with 0.05 μM of Dasatinib, 72-hour treatment
Method: (§1) A549, H1975 (CRL5908, ATCC) or U937 cell (CRL1593.2™, ATCC) lines were cultured in RPMI 1640 media (Lifetechnologies, CA) with supplement of 10% FBS and antibiotic-antimycotic (Lifetechnologies, CA). Dasatinib (Combi-Blocks, San Diego, Calif.) is Bcr-Abl-tyrosine kinase inhibitor and Src family tyrosine kinase inhibitor approved for CML treatment. GDC094 (Selleckchem, Houston, Tex.) is a pan-PI3K inhibitor and effective in various cancer cells. H1975 or A549 cells were dissociated from culture plate using 0.5% trypsin-EDTA (Lifetechnologies, CA) and were suspended. U937 cells were spun down using centrifugation. […]
(§2) Among four concentrations of the compounds of present invention, the highest concentration was set to IC80 and the lowest concentration was approximately IC30. […] 100 μl of DMSO was added after removing MTT solution from each well, and were read by VICTOR X3 Multilabel Counter at the wavelength of 550 nm.
(§3) For the analysis of U937 cell viability, 20 μl of Celltiter96® AQueous one solution (MTS, Promega, Madison, Wis.) were added to each well, and plates were incubated at 37° C. and 5% CO2. After 2 hours later, plates read by VICTOR X3 Multilabel Counter at the wavelength of 490 nm. The combination index (CI value) was calculated using Calcusyn (Biosoft, UK).

[3] = tested on: A549 cell; assay: In vitro combination study with GDC0941 on A549 cell; assay type: cell-based
Method: as §1, §2, §3

[4] = tested on: SK-MEL-28 cells; assay: Cytotoxicity in low glucose condition (MTT); assay type: cell-based; settings: Homo sapiens, SK-MEL-28, 0.75 mM glucose, 72 hours, read-out: SK-MEL-28 0.75 mM glucose Cell viability (IC50 ia)
Description: The inhibition of oxidative phosphorylation (OXPHOS) is not cytotoxic to cells in normal glucose condition, because it is postulated that normal cells have compensatory mechanism under energy stress conditions such as low glucose. However OXPHOS inhibitors show cytotoxic effect on cells in the glucose deprived condition (BirsoyK, 2014). The glucose deprived condition is observed in tumor microenvironment potentially due to poor angiogenesis. Therefore the OXPHOS inhibitors may show anti-cancer effect on cancer cells in low glucose condition that may depict tumor microenvironment.
The compounds of the present invention were evaluated their cytotoxicity in SK-MEL-28, melanoma with 0.75 mM glucose supplement. The cytotoxic effect is compared with the cytotoxicity caused by phenformin. The cytotoxicity in low glucose condition is correlated with inhibition of oxygen consumption in mitochondria.
SK-MEL-28 (HTB-72) is a melanoma cell line obtained from ATCC (MA) and cultured in RPMI 1640 media (Lifetechnologies, CA) with supplement of 10% FBS and antibiotic-antimycotic (Lifetechnologies, CA). RPMI 1640 (-Glucose) was used to prepare low glucose media and 0.75 mM glucose was supplied with D-(+)-glucose solution from Sigma. SK-MEL-28 cells were separated from culture plate using 0.5% trypsin-EDTA and 5,000 cells were plated in 96-well plate with low glucose media. After incubation at 37° C. for 24 hour, 5% CO2, the cells were treated with the compounds of present invention in FBS-free media for 72 hours. The cytotoxicity was measured by the MTT (AMRESCO, OH) assay. NADH-dependent cellular oxidoreductase reduces MTT to its insoluble […] with purple color. The enzyme depends on cell number or energy state of cells. 10 μl of 5 mg/ml MIT solution was added to each well of the assay plate and skip the well for blank. The plate was incubated at 37° C. and 5% CO2 for 2 hours. The MTT solution was removed from each well and 100 μl of DMSO was added. The plate was read by VICTOR X3 Multilabel Counter at the wavelength of 550 nm. In Table 2, the levels of IC50 are evaluated by the following criteria.

[5] = tested on: U937 cell; assay: In vitro combination study with GDC0941 on U937 cell; assay type: cell-based
Method: as §1, §2, §3

[6] = tested on: H1975 cell; assay: In vitro combination study with Dasatinib on H1975 cell; assay type: cell-based; settings: 0.2 μM of Dasatinib, 8 μM or 40 μM of Example 1, 40 μM or 200 μM of Example 104
Method: as §1, §2, §3

[7] = Dosing 100 mg/kg, once daily, Day 28

N=C(N)NC(=N)NCCc1ccc(Cl)c(Cl)c1 [Example 1, N-1-(3,4-dichloro)phenethylbiguanide hydrochloride]
tumor volume compared to the control group ([1]; 100 mg/kg, Phenformin twice daily, Example 1 once daily): significant reduction of tumor volume | T/C (Day 28, %) [1, 7]: 65.4% | Tumor Volume (Day 28, mm^3, a) [1, 7]: 1,869 ± 82 mm^3 | tumor volume compared to the single administration of Vemurafenib ([1]; in combination with 15 mg/kg of Vemurafenib): reduced the tumor volume | CI value (combination index) [2]: 0.289 | CI value (combination index) [3]: lower than 1 | IC50 [4]: 5 to 10 µM | CI value (combination index) [5]: lower than 1 | combination therapy effect with Dasatinib [6]: low combination therapy effect
